Tests used:
[1] = Plasma nicotine metabolite cotinine concentration in MMT patients subgrouped by age; format: in vivo, human
[2] = Self-reported skin irritation after taking methadone in MMT patients; conditions: 15 of 344 MMT patients
Description: The inclusion criteria included subjects aged 18 or above, having undergone MMT for at least three months with regular attendance for the past seven days, and a methadone dosage adjustment of not more than 10 mg in the past seven days. Exclusion criteria included co-morbidity with physical and mental disorders requiring immediate treatment and pregnancy.

Compound | Plasma cotinine concentration ([1]; MMT subjects age <45, n=275, mean ± SD) [ng/mL] | Plasma cotinine concentration ([1]; MMT subjects age ≥45, n=69, mean ± SD) [ng/mL] | Patients self-reporting skin irritation after taking methadone [2]
CN1C(=O)CC[C@H]1c1cccnc1 [Cotinine] | 384.20 ± 184.90 | 439.65 ± 203.44 | 
CCC(=O)C(CC(C)N(C)C)(c1ccccc1)c1ccccc1 (stereo not drawn) [R,S-methadone] |  |  | around 4.4%

— patent US20230273220A1, “METHODS FOR PREDICTION, DETECTION AND MONITORING OF SUBSTANCEUSE DISORDERS AND/OR AN INFECTION” (NATIONAL HEALTH RESEARCH INSTITUTES, priority 2020, published 2023)
